Results from patent US11384075B2, “Quinolinone compounds” (Janssen Pharmaceutica NV, priority 2017, dated 2022).
Where two headings read alike, the source gives them in different places.

Key:
[1] = biological target: T1, human FGFR3 V555M enzyme (cytoplasmic domain carrying V555M mutation) (Homo sapiens, UniProt P22607, V555M); assay: FGFR3 V555M mobility shift assay (enzymatic assay); format: biochemical; conditions: 30 μM ATP, 45 minutes at 30° C., Caliper EZ reader II
T1 construct: human FGFR3 V555M enzyme (cytoplasmic domain carrying V555M mutation, from Carna Biosciences); purchased Carna Biosciences
T1 sequence (P22607 397-806 V555M limits assumed): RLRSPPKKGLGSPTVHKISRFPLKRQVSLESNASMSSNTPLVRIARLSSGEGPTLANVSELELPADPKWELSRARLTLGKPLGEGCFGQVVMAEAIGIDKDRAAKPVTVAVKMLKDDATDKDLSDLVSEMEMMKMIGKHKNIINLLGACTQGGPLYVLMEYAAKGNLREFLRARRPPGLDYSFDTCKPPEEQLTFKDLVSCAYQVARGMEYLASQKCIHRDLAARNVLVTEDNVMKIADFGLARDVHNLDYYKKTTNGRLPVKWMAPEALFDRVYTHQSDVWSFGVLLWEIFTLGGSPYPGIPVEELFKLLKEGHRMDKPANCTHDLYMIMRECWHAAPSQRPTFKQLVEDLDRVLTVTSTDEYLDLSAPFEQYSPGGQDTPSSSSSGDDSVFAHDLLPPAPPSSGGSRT
In short: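 Cytoplasmic-domain FGFR3 V555M (0.04 ng/μL) with 30 μM ATP and 1 μM FL-peptide 30 in HEPES pH 7.4/MgCl2/Brij35/DTT, 1% DMSO, 45 min at 30 °C, EDTA-stopped. Mobility-shift read of substrate-product conversion; 10-point 4× dilution from 10 μM fitted for IC50/pIC50.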

[2] = biological target: T2, NIH/3T3 cells overexpressing FGFR3 V555M-TACC3 fusion protein (Homo sapiens, UniProt P22607, V555M, cells depend on it); assay: NIH/3T3 FGFR3 V555M-TACC3 cell proliferation assay; format: cell-based; conditions: 72-hr incubation, CellTiter Glo, starting with 10 μM; read-out: NIH/3T3 FGFR3 V555M-TACC3 CTG (IC50)
T2 construct: NIH/3T3 FGFR3 V555M-TACC3 CTG (IC50); other: 72-hr incubation, CellTiter Glo, starting with 10 μM; fused on or other part: Q9Y6A5 (Transforming acidic coiled-coil-containing protein 3)
T2 sequence (P22607 whole entry V555M, the tested form may be a part): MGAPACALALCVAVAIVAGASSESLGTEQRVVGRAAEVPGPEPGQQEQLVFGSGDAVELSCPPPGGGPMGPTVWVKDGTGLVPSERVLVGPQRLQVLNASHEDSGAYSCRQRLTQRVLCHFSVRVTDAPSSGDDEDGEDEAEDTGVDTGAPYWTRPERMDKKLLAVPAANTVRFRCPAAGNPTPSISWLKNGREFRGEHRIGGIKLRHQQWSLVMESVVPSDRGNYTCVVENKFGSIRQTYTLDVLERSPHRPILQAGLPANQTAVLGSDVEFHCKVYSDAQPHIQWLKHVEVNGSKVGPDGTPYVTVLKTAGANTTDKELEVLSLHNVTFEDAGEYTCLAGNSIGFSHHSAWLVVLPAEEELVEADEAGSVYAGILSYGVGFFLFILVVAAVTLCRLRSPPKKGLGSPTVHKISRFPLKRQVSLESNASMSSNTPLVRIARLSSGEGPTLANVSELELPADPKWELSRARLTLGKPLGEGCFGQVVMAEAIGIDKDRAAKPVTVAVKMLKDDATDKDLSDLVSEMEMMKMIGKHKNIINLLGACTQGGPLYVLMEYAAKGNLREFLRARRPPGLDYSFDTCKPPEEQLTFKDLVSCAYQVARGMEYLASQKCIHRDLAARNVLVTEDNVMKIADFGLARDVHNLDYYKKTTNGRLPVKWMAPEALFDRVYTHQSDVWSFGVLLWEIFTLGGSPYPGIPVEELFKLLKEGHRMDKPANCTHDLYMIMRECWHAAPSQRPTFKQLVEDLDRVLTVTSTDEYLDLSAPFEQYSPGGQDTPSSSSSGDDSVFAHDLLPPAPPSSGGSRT
In short: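 NIH/3T3 cells overexpressing FGFR3 V555M-TACC3 fusion, 30,000/well in DMEM/10% FBS, treated for 72 h at 37 °C with 9 doses (4× dilutions from 10 μM top, 0.1% DMSO). CellTiter-Glo luminescence normalised to % survival; IC50, pIC50 and Hill slope from concentration-response fits.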

[3] = biological target: T3, human FGFR3 V555L enzyme (cytoplasmic domain carrying V555L mutation) (Homo sapiens, UniProt P22607, V555L); assay: FGFR3 V555L mobility shift assay (enzymatic assay); format: biochemical; conditions: 40 μM ATP, 50 minutes at 30° C., Caliper EZ reader II
T3 construct: human FGFR3 V555L enzyme (cytoplasmic domain carrying V555L mutation, from Carna Biosciences); purchased Carna Biosciences
T3 sequence (P22607 397-806 V555L limits assumed): as the sequence (P22607 397-806 V555M limits assumed) above, with M159L counted along it
Protocol: FGFR3 V555L Mobility Shift Assay (Enzymatic Assay)
In a final reaction volume of 25 μL, 0.04 ng/μL human FGFR3 V555L enzyme (cytoplasmic domain carrying V555L mutation, from Carna Biosciences) was incubated with 40 μM ATP, 1 μM FL-peptide 30 substrate and 250 nL of testing compound (1% DMSO final) in assay buffer (100 mM HEPES pH 7.4, 10 mM MgCl2, 0.003% Brij35, 1 mM DTT). After incubation for 50 minutes at 30° C. the reaction was stopped with 10 μL of 0.5M EDTA pH 8.0, and then 25 μL of reaction mixture was transferred to reading plate and measured on Caliper EZ reader II. The substrate-product conversion rate was used as raw data for normalization and concentration-response curve (10 dose points with 4× serial dilution, starting with 10 μM) was plotted using Prism to calculate IC50 (M), pIC50 (−log IC50) and HillSlope value.

[4] = biological target: T4, human FGFR3 wild type enzyme (cytoplasmic domain) (Homo sapiens, UniProt P22607); assay: FGFR3 wild type mobility shift assay (enzymatic assay); format: biochemical; conditions: 75 μM ATP, 50 minutes at 30° C., Caliper EZ reader II
T4 construct: human FGFR3 wild type enzyme (cytoplasmic domain, from Carna Biosciences); purchased Carna Biosciences
T4 sequence (P22607 397-806 limits assumed): as the sequence (P22607 397-806 V555M limits assumed) above, with M159V counted along it
In short: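 Cytoplasmic domain of human wild-type FGFR3 (0.04 ng/μL) with 75 μM ATP and 1 μM FL-peptide 30, pH 7.4 HEPES/MgCl2 buffer, 1% DMSO, 50 min at 30 °C, EDTA-stopped. Substrate-product conversion read by mobility shift. IC50, pIC50 and Hill slope from 10-point 4-fold dilutions starting at 10 μM.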

[5] = tested on: NIH/3T3 cells transfected with the same control vector; assay: NIH/3T3 mock cell proliferation assay (counter assay, general toxicity); format: cell-based; conditions: 72-hr incubation, CellTiter Glo, starting with 30 μM, counter assay for general toxicity, read-out: NIH/3T3 MOCK CTG (IC50)
In short: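 Control-vector NIH/3T3 cells, 30,000/well in DMEM with 10% FBS, exposed 72 h at 37 °C to compound (9 points, 3-fold from 30 μM, 0.3% DMSO). CellTiter-Glo luminescence normalized to survival %; IC50, pIC50 and Hill slope from concentration-response fit.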

[6] = biological target: T5, NIH/3T3 cells overexpressing FGFR3 WT-TACC3 fusion protein (Homo sapiens, UniProt P22607); assay: NIH/3T3 FGFR3 WT-TACC3 cell proliferation assay; format: cell-based; conditions: 72-hr incubation, CellTiter Glo, starting with 10 μM; read-out: NIH/3T3 FGFR3 WT-TACC3 CTG (IC50)
T5 construct: NIH/3T3 FGFR3 WT-TACC3 CTG (IC50); other: 72-hr incubation, CellTiter Glo, starting with 10 μM; fused on or other part: Q9Y6A5 (Transforming acidic coiled-coil-containing protein 3)
T5 sequence (P22607 whole entry, change not shown, the tested form may be a part): as the sequence (P22607 whole entry V555M, the tested form may be a part) above, with M555V counted along it
In short: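 Cells seeded overnight, then exposed 72 h at 37 °C to compound in 9-point 4-fold dilutions from 10 μM (0.1% DMSO final). Viability read by CellTiter-Glo luminescence, normalized to survival %; IC50, pIC50 and Hill slope from concentration-response fit.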

SMILES	IC50 [1] [nM]	GI50 [2] [nM]	IC50 [3] [nM]	IC50 [4] [nM]	GI50 [6] [nM]	IC50 ([5]; Mus musculus, NIH3T3, 72 h) [nM]	IC50 [5] [nM]
CCCC(Nc1c(-c2nc3ccc(N4CCOCC4)cc3[nH]2)c(=O)[nH]c2ccccc12)c1ncccn1 (single isomer, unassigned) [Compound 31a, (S*)-3-(6-morpholino-1H-benzo[d]imidazol-2-yl)-4-((1-(pyrimidin-2-yl)butyl)amino)quinolin-2(1H)-one]	0.181	14.3	–	0.843	25.7	2920	–
C[C@H](Nc1c(-c2nc3ccc(N4CCOC(C(=O)O)C4)cc3[nH]2)c(=O)[nH]c2ccccc12)c1ccccn1 (mixture of isomers) [Compound 60, (Rac)-4-(2-(2-oxo-4-(((S)-1-(pyridin-2-yl)ethyl)amino)-1,2-dihydroquinolin-3-yl)-1H-benzo[d]imidazol-6-yl)morpholine-2-carboxylic acid]	0.603	1620	–	1.18	1280	> 30000	–
CC(Nc1c(-c2nc3ccc(N4CCOCC4)cc3[nH]2)c(=O)[nH]c2ccccc12)c1ccn(C(C)C)n1 (single isomer, unassigned) [Compound 36b, (S*)-4-((1-(1-isopropyl-1H-pyrazol-3-yl)ethyl)amino)-3-(6-morpholino-1H-benzo[d]-imidazol-2-yl)quinolin-2(1H)-one]	2.35	170	–	7.32	315	1520	–
CC(Nc1c(-c2nc3ccc(N4CCO[C@@H](C)C4)cc3[nH]2)c(=O)[nH]c2ccccc12)c1ncccn1 (single isomer, unassigned) [Compound 26a, 3-(6-((S)-2-methylmorpholino)-1H-benzo[d]imidazol-2-yl)-4-(((S*)-1-(pyrimidin-2-yl)-ethyl)amino)quinolin-2(1H)-one]	0.178	4.3	–	0.317	2.22	2580	–
COC(=O)C1CN(c2ccc3nc(-c4c(N[C@@H](C)c5ccccn5)c5ccccc5[nH]c4=O)[nH]c3c2)CCO1 (single isomer, unassigned) [Compound 61, (S*)-methyl 4-(2-(2-oxo-4-(((S)-1-(pyridin-2-yl)ethyl)amino)-1,2-dihydroquinolin-3-yl)-1H-benzo[d]imidazol-6-yl)morpholine-2-carboxylate]	1.13	111	–	2.15	113	–	1840
CC(Nc1c(-c2nc3ccc(N4CCOCC4)cc3[nH]2)c(=O)[nH]c2ccccc12)c1cscn1 (single isomer, unassigned) [Compound 52a, (S*)-3-(6-morpholino-1H-benzo[d]imidazol-2-yl)-4-((1-(thiazol-4-yl)ethyl)amino)-quinolin-2(1H)-one]	0.208	6.69	–	0.858	23.1	1430	–

The remaining molecules from weak to strong by IC50 [1], led by results:

IC50 [1] [nM]	GI50 [2] [nM]	IC50 [3] [nM]	IC50 [4] [nM]	GI50 [6] [nM]	SMILES	IC50 ([5]; Mus musculus, NIH3T3, 72 h) [nM]	IC50 [5] [nM]
204	41.8	–	585	58.5	C[C@@H](Nc1c(-c2nc3ccc(N4CCOCC4)cc3[nH]2)c(=O)[nH]c2ccccc12)c1ncccn1 [Compound 3, (R)-3-(6-morpholino-1H-benzo[d]imidazol-2-yl)-4-((1-(pyrimidin-2-yl)ethyl)-amino)quinolin-2(1H)-one]	11000	–
2.66	274	–	16.6	253	C[C@H](Nc1c(-c2nc3ccc(N4CCOCC4)cc3[nH]2)c(=O)[nH]c2c(F)cccc12)c1ccccn1 [Compound 16, (S)-8-fluoro-3-(6-morpholino-1H-benzo[d]imidazol-2-yl)-4-((1-(pyridin-2-yl)ethyl)-amino)quinolin-2(1H)-one]	2600	–
2.15	141	–	3.38	52.2	C[C@H](Nc1c(-c2nc3cc(C(F)(F)F)c(N4CCN(C)CC4)cc3[nH]2)c(=O)[nH]c2ccccc12)c1ccccn1 [Compound 14, (S)-3-(6-(4-methylpiperazin-1-yl)-5-(trifluoromethyl)-1H-benzo[d]imidazol-2-yl)-4-((1-(pyridin-2-yl)ethyl)amino)quinolin-2(1H)-one]	3010	–
1.65	51.4	1.39	0.709	–	C[C@H](Nc1c(-c2nc3ccc(N4CCN(C)CC4)cc3[nH]2)c(=O)[nH]c2cc(F)ccc12)c1ccccn1 [Compound 63, (S)-7-Fluoro-3-(6-(4-methylpiperazin-1-yl)-1H-benzo[d]imidazol-2-yl)-4-((1-(pyridin-2-yl)ethyl)amino)quinolin-2(1H)-one]	637	–
0.643	9.93	–	1	20.3	CC(Nc1c(-c2nc3ccc(N4CCC(OC(F)(F)F)CC4)cc3[nH]2)c(=O)[nH]c2ccccc12)c1ncccn1 (single isomer, unassigned) [Compound 43a, (S*)-4-((1-(pyrimidin-2-yl)ethyl)amino)-3-(6-(4-(trifluoromethoxy)piperidin-1-yl)-1H-benzo[d]imidazol-2-yl)quinolin-2(1H)-one]	8270	–
0.485	5.01	–	0.668	7.08	CC(Nc1c(-c2nc3ccc(N4CCN(CCC(F)(F)F)CC4)cc3[nH]2)c(=O)[nH]c2ccccc12)c1ncccn1 (single isomer, unassigned) [Compound 41a, (S*)-4-((1-(pyrimidin-2-yl)ethyl)amino)-3-(6-(4-(3,3,3-trifluoropropyl)piperazin-1-yl)-1H-benzo[d]imidazol-2-yl)quinolin-2(1H)-one]	6970	–
0.484	61.7	–	0.809	32.3	C[C@H](Nc1c(-c2nc3ccc(N4CCC(C(=O)O)CC4)cc3[nH]2)c(=O)[nH]c2ccccc12)c1ccccn1 [Compound 6, (S)-1-(2-(2-Oxo-4-((1-(pyridin-2-yl)ethyl)amino)-1,2-dihydroquinolin-3-yl)-H-benzo[d]imidazol-6-yl)piperidine-4-carboxylic acid 0.5formate]	795	–
0.263	–	0.504	0.369	–	C[C@H](Nc1c(-c2nc3ccc(OC4CCN(C)CC4)cc3[nH]2)c(=O)[nH]c2ccccc12)c1ccccn1 [Compound 64, (S)-3-(6-((1-Methylpiperidin-4-yl)oxy)-1H-benzo[d]imidazol-2-yl)-4-((1-(pyridin-2-yl)-ethyl)amino)quinolin-2(1H)-one]	–	–
